According to US10934297B2, “5-heteroaryl substituted indazole-3-carboxamides and preparation and use thereof” (Samumed, LLC, priority 2018, dated 2021):

Assays:
[1] = system: Wnt activity (Sp5-Luc reporter in SW480 cells); assay: Screening assay for Wnt activity: Sp5-Luc reporter gene assay in SW480 colon carcinoma cells; type: cell-based, human; conditions: Homo sapiens, 36 to 48 hours
Procedure, shortened: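 EC50 values come from a variable-slope four-parameter fit of luminescence normalized to DMSO-only wells. The read-out follows 36–48 h incubation at 37 °C, 5% CO2, in DMEM containing 1% fetal bovine serum. Cells are hygromycin-selected SW480 stably expressing firefly luciferase under a Wnt-responsive Sp5 promoter (eight TCF/LEF sites).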

DYRK1A kinase = DYRK1A kinase (Homo sapiens (Human), UniProt Q13627); assay: DYRK1A kinase assay (Ser/Thr 18 peptide Z-lyte FRET); type: biochemical; conditions: read-out: EC50 (method: IC50)
Procedure, shortened: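 Kinase reactions with compound ran 1 h at room temperature in duplicate, and development reagent was then added for another hour.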

GSK3β kinase = GSK3β kinase (Homo sapiens (Human), UniProt P49841); assay: GSK3β kinase assay (Ser/Thr 09 peptide Z-lyte FRET); type: biochemical; conditions: read-out: EC50 (method: IC50)
Procedure, shortened: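 Non-radioactive Z-lyte FRET read-out, kinase activity expressed as coumarin/fluorescein emission ratio. Compounds incubated with the reaction mixture one hour at room temperature in duplicate, then development buffer added for another hour. IC50 from non-linear regression of dose-response curves.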

[2] = system: SW480 colon carcinoma cells; assay: Cell viability assay (CellTiter-Glo) in SW480 colon carcinoma cells; type: cell-based, human; conditions: Homo sapiens, 96 h, four days
Procedure, shortened: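 Viability was taken from CellTiter-Glo ATP luminescence, read about 12 min after reagent addition, relative to DMSO controls. The cells were Sp5-Luc reporter SW480 colon carcinoma cells, 2,000/well in 1% FBS DMEM, exposed to compound for four days at 37 °C.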

[3] = system: primary human fibroblasts derived from IPF patients (LL29 cells); assay: Inhibition of the fibrotic process: αSMA staining in TGF-β1 treated LL29 fibroblasts; type: cell-based; conditions: Homo sapiens, Fibroblast, 96 h; LL29 cells, TGF-β1 20 ng/mL, 4 days, % αSMA positive cells
Procedure, shortened: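 LL29 fibroblasts from IPF patients, in F12 medium with 1% FBS, treated with TGF-β1 plus compound; TGF-β1 with DMSO as positive control, DMSO alone as negative control. After 4 days' incubation, SYTOX green nucleic acid stain added at 1 μM final, 30 min at room temperature.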

IL-6 = IL-6 inhibition in LPS-stimulated human peripheral blood mononuclear cells (HTRF); type: cell-based; conditions: Homo sapiens, PBMC; for EC50: huPBMCs, LPS 50 ng/mL, 22 hours, IL-6 HTRF; for inhibition at 10 µM: read-out: percent inhibition at 10 μM
Procedure, shortened: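 HTRF 665/620 nm ratio, read after 3 h antibody incubation at room temperature, quantified IL-6 released by fresh human PBMCs (1×10e6 cells/mL, 1% FBS-RPMI). The cells got compound, then 50 ng/mL LPS at 2 h, followed by a further 22 h at 37° C. EC50 came from DMSO-normalized readings run in duplicate.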

[4] = system: primary human mesenchymal stem cells (hMSCs); assay: Tenocyte differentiation assay (SCXA-positive cells) in hMSCs; type: cell-based; conditions: for EC50: Homo sapiens, Mesenchymal stem cells, 96 h, hMSCs, 4 days, SCXA positive cells; for percent in parentheses under EC50 >100: given for EC50 >100 μM, meaning not defined in this example
Procedure, shortened: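 Passage 3–6 hMSCs were compound-treated, fixed in 4% formaldehyde and stained overnight at 4 °C with anti-SCXA antibody; SCXA-positive cells were counted by imaging. Counts were normalized to the mean of 12 DMSO wells as fold change, averaged over 3 replicate wells per concentration, and curve-fitted for EC50.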

GSK3β kinase, sequence (P49841 whole entry): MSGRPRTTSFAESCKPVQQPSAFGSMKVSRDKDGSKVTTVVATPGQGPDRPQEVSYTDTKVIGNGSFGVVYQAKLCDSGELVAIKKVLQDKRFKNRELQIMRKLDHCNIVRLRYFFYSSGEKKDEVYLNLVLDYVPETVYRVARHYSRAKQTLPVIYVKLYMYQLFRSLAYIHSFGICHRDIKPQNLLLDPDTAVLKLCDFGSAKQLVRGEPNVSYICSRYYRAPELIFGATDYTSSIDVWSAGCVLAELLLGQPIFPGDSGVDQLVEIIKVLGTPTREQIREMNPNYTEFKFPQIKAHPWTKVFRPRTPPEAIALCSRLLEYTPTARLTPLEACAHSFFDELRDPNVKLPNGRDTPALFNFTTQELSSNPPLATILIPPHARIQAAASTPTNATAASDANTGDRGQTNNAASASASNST

SMILES | EC50 [1] | IC50 (DYRK1A kinase) | IC50 (GSK3β kinase) | EC50 [2] | EC50 [3] | EC50 (IL-6) | EC50 [4] | inhibition at 10 µM (IL-6) | percent in parentheses under EC50 >100 [4]
Cn1cc(-c2ccc3[nH]nc(C(=O)NCC(F)(F)CN4CCCC4)c3c2)cn1 [Compound 106, N-(2,2-Difluoro-3-(pyrrolidin-1-yl)propyl)-5-(1-methyl-1H-pyrazol-4-yl)-1H-indazole-3-carboxamide] | 685 nM | 40 nM | 14 nM | > 10000 nM | 795 nM | 6850 nM | 1300 nM | – | –
Cn1cc(-c2cc(F)c3[nH]nc(C(=O)NC4CCN(CC(F)F)CC4)c3c2)cn1 [Compound 101, N-(1-(2,2-Difluoroethyl)piperidin-4-yl)-7-fluoro-5-(1-methyl-1H-pyrazol-4-yl)-1H-indazole-3-carboxamide] | > 10000 nM | 408 nM | 86 nM | > 10000 nM | > 10000 nM | > 10000 nM | > 100000 nM | 14.1% | (33.0%)
CN1CCC(Oc2ncc(NC(=O)c3n[nH]c4cc(F)c(-c5cnn(C)c5)cc34)cc2F)CC1 [Compound 157, 6-Fluoro-N-(5-fluoro-6-((1-methylpiperidin-4-yl)oxy)pyridin-3-yl)-5-(1-methyl-1H-pyrazol-4-yl)-1H-indazole-3-carboxamide] | 1150 nM | 1 nM | 20 nM | 1300 nM | 2580 nM | 1310 nM | > 100000 nM | – | (35.3%)
Cc1ncc(-c2ccc3[nH]nc(C(=O)Nc4ccc(OC5CCN(C)CC5)cc4)c3c2)s1 [Compound 82, N-(4-((1-Methylpiperidin-4-yl)oxy)phenyl)-5-(2-methylthiazol-5-yl)-1H-indazole-3-carboxamide] | 1460 nM | 7 nM | 41 nM | 1250 nM | 288 nM | 3930 nM | > 100000 nM | – | (2.9%)
Cn1cc(-c2cc(F)c3[nH]nc(C(=O)Nc4ccc(CN5CCCC5)cc4)c3c2)cn1 [Compound 119, 7-Fluoro-5-(1-methyl-1H-pyrazol-4-yl)-N-(4-(pyrrolidin-1-ylmethyl)phenyl)-1H-indazole-3-carboxamide] | 3060 nM | 21 nM | 41 nM | 1870 nM | 315 nM | 1930 nM | 14000 nM | – | –
Cn1cc(-c2cc3c(C(=O)Nc4cccc(OCCN5CCCC5)c4)n[nH]c3cc2F)cn1 [Compound 154, 6-Fluoro-5-(1-methyl-1H-pyrazol-4-yl)-N-(3-(2-(pyrrolidin-1-yl)ethoxy)phenyl)-1H-indazole-3-carboxamide] | 306 nM | 5 nM | 20 nM | 414 nM | 1130 nM | 1860 nM | > 100000 nM | – | (21.0%)
CN1CCC(Oc2ccc(NC(=O)c3n[nH]c4ccc(-c5cnn(C)c5)cc34)cc2)CC1 [Compound 122, 5-(1-Methyl-1H-pyrazol-4-yl)-N-(4-((1-methylpiperidin-4-yl)oxy)phenyl)-1H-indazole-3-carboxamide] | 205 nM | 2 nM | 38 nM | 380 nM | 2640 nM | 948 nM | > 100000 nM | – | (37.4%)
Cc1ncc(-c2ccc3[nH]nc(C(=O)N[C@@H](C)C(F)(F)F)c3c2)n1C [Compound 131, (S)-5-(1,2-Dimethyl-1H-imidazol-5-yl)-N-(1,1,1-trifluoropropan-2-yl)-1H-indazole-3-carboxamide] | > 10000 nM | 220 nM | 27 nM | 3040 nM | 4490 nM | > 10000 nM | 2770 nM | 15.1% | –
